Test results: US20250108007A1, “LIPID COMPOUND AND LIPID NANOPARTICLE COMPOSITION” (SUZHOU ABOGEN BIOSCIENCES CO., LTD., priority 2021, published 2025)

Columns and labels:
female ICR mice = assay: hEPO mRNA lipid nanoparticles in mice, serum EPO by ELISA; assay type: in vivo; details: hEPO mRNA LNP, 0.5 mg/kg, tail vein injection, blood e.g. 6 hours after administration, relative to MC3 LNP positive control
Experimental: Lipid nanoparticles including human erythropoietin (hEPO) mRNA encapsulated by compound in the following table were administered at a dose of 0.5 mg/kg to female ICR mice at 6-8 weeks of age (Xipuer-Bikai, Shanghai) via tail vein injection. Mouse blood samples were taken at specific time points (e.g., 6 hours) after administration. In addition to the above test groups, the lipid nanoparticles including dilinoleylmethyl-4-dimethylaminobutyrate (DLin-MC3-DMA, commonly abbreviated as MC3) encapsulated hEPO mRNA were administered at the same dose to mice of similar age and sex as positive controls.
After the last sampling time point, the mice were euthanized by excess CO2. Serum was separated from whole blood by centrifugation at 5,000 g for 10 minutes at 4° C., snap frozen and stored at −80° C. for analysis. ELSA analysis was performed using a commercially available kit (DEP00, R&D system) according to the manufacturer instructions.
The following table lists the characteristics of the tested lipid nanoparticles, including the expression levels measured from the test group above MC3.

[1] = Encapsulation efficiency of lipid nanoparticles (Quant-it Ribogreen RNA assay); assay type: physicochemical; details: LNP cationic lipid/DSPC/cholesterol/PEG-lipid 50:10:38.5:1.5 with mRNA
Experimental: (§1) Briefly, the cationic lipid, DSPC, cholesterol and PEG-lipid provided by the present invention were dissolved in ethanol at a molar ratio of 50:10:38.5:1.5, and mRNA was diluted in a citrate buffer at 10-50 mM, pH=4. The ethanolic lipid solution and the mRNA aqueous solution were mixed at a volume ratio of 1:3 by a microfluidic device at a flow rate of 9-30 mL/min, so as to prepare LNP at a weight ratio of total lipid to mRNA of about 10:1 to 30:1. PBS for dialysis was used instead of ethanol, thereby removing ethanol. Finally, the lipid nanoparticles were filtered through a 0.2 μm sterile filter.
(§2) The size of the lipid nanoparticles was determined by dynamic light scattering using 173° backscatter detection mode of Malvern Zetasizer Nano ZS (Malvern UK). According to the description of the manufacturer, the encapsulation efficiency of the lipid nanoparticle was determined using a Quant-it Ribogreen RNA quantitative assay kit (Thermo Fisher Scientific, UK).

[2] = Size and polydispersity of lipid nanoparticles by dynamic light scattering; assay type: physicochemical; details: LNP cationic lipid/DSPC/cholesterol/PEG-lipid 50:10:38.5:1.5 with mRNA
Experimental: as §1, §2

Row | Structure (SMILES) | EPO expression relative to MC3 (female ICR mice) | Encapsulation efficiency (EE %) [1] [%] | Polydispersity index (PDI) [2] | Size (nm) [2] [nm]
1 | CCCCCCCCC(CCCCCCCC)COC(=O)CCCCCN(CCCCCC(=O)OCC(CCCCCCCC)CCCCCCCC)CC1(O)CCN(C(=O)CCCN(C)C)CC1 [Compound 1] | Not detected | 99.1 | 0.257 | 68.14
2 | CCCCCCCCC(CCCCCCCC)COC(=O)CCCCCN(CCCCCC(=O)OCC(CCCCCCCC)CCCCCCCC)CC1(O)CCN(C)CC1 [Compound 2] | Not detected | 98.1 | 0.114 | 80.02
3 | CCCCCCCCC(CCCCCCCC)COC(=O)CCCCCN(CCCCCC(=O)OCC(CCCCCCCC)CCCCCCCC)CC1(O)CCN(C(=O)CN(C)C)CC1 [Compound 3] | Not detected | 97.3 | 0.248 | 78.45
4 | CCCCCCCCC(CCCCCCCC)COC(=O)CCCCCN(CCCCCC(=O)OCC(CCCCCCCC)CCCCCCCC)CC1(O)CCN(C(=O)CCCCN(C)C)CC1 [Compound 4] | Not detected | 98.4 | 0.28 | 55.63
5 | CCCCCCCCC(CCCCCCCC)COC(=O)CCCCCN(CCCCCC(=O)OCC(CCCCCCCC)CCCCCCCC)CC1(O)CCN(CCC)CC1 [Compound 6] | A (A: ≥2) | 92.8 | 0.034 | 83.23
6 | CCCCCCCCC(CCCCCCCC)COC(=O)CCCCCN(CCCCCC(=O)OCC(CCCCCCCC)CCCCCCCC)CCC(=O)N1CCC(O)(CN(C)C)CC1 [Compound 7] | Not detected | 97.6 | 0.073 | 43.78
7 | CCCCCCCCC(CCCCCCCC)COC(=O)CCCCCN1CCC(O)(CN(CCCCCC(=O)OCC(CCCCCCCC)CCCCCCCC)C2CCC2)CC1 [Compound 8] | C (C: ≥0.1 and <1) | 93.7 | 0.16 | 54.23
8 | CCCCCCCCC(CCCCCC)COC(=O)CCCCCN(CCCCCC(=O)OCC(CCCCCC)CCCCCCCC)CCCCCC(=O)N1CCC(O)(CN(C)C)CC1 (centres unmarked) [Compound 9] | Not detected | 97.6 | 0.212 | 35.26
9 | CCCCCCCCC(CCCCCC)COC(=O)CCCCCN(CCCCCC(=O)OCC(CCCCCC)CCCCCCCC)CCN1CCC(O)(CN(C)CC)CC1 (centres unmarked) [Compound 10] | Not detected | 96.7 | 0.083 | 133.3
10 | CCCCCCCCC(CCCCCC)COC(=O)CCCCCN(C)CC1(O)CCN(CCCCCC(=O)OCC(CCCCCC)CCCCCCCC)CC1 (centres unmarked) [Compound 11] | B (B: ≥1 and <2) | 96.8 | 0.045 | 86.19
11 | CCCCCCCCC(CCCCCC)COC(=O)CCCCCN1CCC(O)(CN(CCCCCC(=O)OCC(CCCCCC)CCCCCCCC)C2CCCC2)CC1 (centres unmarked) [Compound 12] | C (C: ≥0.1 and <1) | 81.5 | 0.084 | 109.1
12 | CCCCCCCCC(CCCCCC)COC(=O)CCCCCN1CCC(O)(CN(CCCCCC(=O)OCC(CCCCCC)CCCCCCCC)C2CCCCC2)CC1 (centres unmarked) [Compound 13] | C (C: ≥0.1 and <1) | 83.9 | 0.049 | 117.7
13 | CCCCCCCCC(CCCCCC)COC(=O)CCCCCN(CCCCCC(=O)OCC(CCCCCC)CCCCCCCC)CCN1CCC(O)(CN(C)C)CC1 (centres unmarked) [Compound 14] | Not detected | 97.3 | 0.139 | 97.33
14 | CCCCCCCCC(CCCCCC)CC(=O)OCC(CCCCN1CCC(O)(CN(C)C)CC1)COC(=O)CC(CCCCCC)CCCCCCCC (centres unmarked) [Compound 15] | Not detected | 94.3 | 0.06 | 53.67
